Measured values from patent publication US20080058426A1, “COMPOSITION AND METHOD FOR TREATING PSORIASIS” (priority 2006, published 2008).

Assay: Safety of THC in the psoriasis clinical study
Conditions: human, in vivo
Excerpt: • Study Duration: 45 days • Population: 10 psoriasis affected subjects • Intervention: THC formulated as a cream with pharmaceutically acceptable carriers applied topically three times a day for 45 days.
The primary objective in this study was to determine the efficacy and safety of the THC cream. The parameters to detect the efficacy and safety of the medication included relief from the characteristic symptoms of psoriasis like itching, erythema, scaling, infiltration, and the extent of clearance of psoriasis lesions.

In the case of Tetrahydrocurcuminoids [THC], the Toxic side effects was “devoid of toxic side effects”.
